{"source": "paper PMC8170132", "about": "“Kinetics of Abacavir-Induced Remodelling of the Major Histocompatibility Complex Class I Peptide Repertoire” (Frontiers in Immunology, 2021)", "key": {"HLA-B*57:01 [1]": {"target": "T1, HLA-B*57:01 (Homo sapiens, UniProt P01889, D201E/D98Y/E176V/E187L/E204Q/E69M/E70A/G107R/I90N/K202T/L105A/L119I/N104I/N87E/Q89R/Q94S/R106L/R155S/R180L/R86G/S101N/S121V/S35A/S48A/T118I/V36M/Y140S/Y91M)", "assay": "LC-MRM-MS quantitation of HLA ligands and co-purified abacavir from abacavir treated C1R.B*57:01 cells", "type": "cell-based", "settings": "C1R.B*57:01, 35 µM abacavir"}, "C1R.B*57:01 cells": {"test_system": "C1R.B*57:01 cells", "assay": "Cellular proteome comparison by label free quantitation LC-MS/MS", "type": "cell-based, human", "settings": "35 µM abacavir, 48 h, 2,306 proteins, 5% FDR"}, "[2]": {"test_system": "abacavir responsive CD8+ T cells", "assay": "Intracellular cytokine staining of abacavir responsive CD8+ T cells stimulated with abacavir treated C1R.B*57:01", "type": "cell-based, human", "settings": "35 µM abacavir 0-30 h, three T cell lines", "protocol": "Stimulator PBMCs were subsequently added to responder PBMC at a 2:1 responder:stimulator ratio and the final volume of culture made up to 2 ml with RF10. Cells were incubated at 37°C, 5% CO2 and fed with fresh media as required to sustain cell outgrowth. On day 5 of culture, cell media were supplemented with rhIL-2 (Cetus) at 20 U/ml and maintained at this concentration thereafter. […] C1R.B*57:01 were mixed with 1 × 10^5 T cells at a 1:2 ratio in a volume of 200 μl fresh RH10. […] Sigma-Aldrich) was added to a final concentration of 10 μg/ml and incubated a further 4 h. Cells were stained with anti-CD4-PE [clone RPA-T4, Becton Dickinson (BD) Biosciences, USA] and anti-CD8-PerCP-Cy™5.5 (clone SK1, BD Biosciences, 25 min, 4°C), fixed with 1% PFA/PBS (20 min, room temperature), washed in PBS, then permeabilised with 0.3% saponin (Sigma-Aldrich) in PBS containing anti-Interferon-γ (IFNγ)-PE-Cy™7 (clone B27, BD Biosciences) and anti-tumour necrosis factor (TNF)-PE-V450 (clone Mab11, BD Biosciences), and acquired by flow cytometry using an LSR II flow cytometer and BD […]™ software (BD). The percentage of CD8^+ T cells producing IFNγ and TNF was determined via analysis using FlowJo software (BD)."}, "HLA-B*57:01 [3]": {"target": "T1, HLA-B*57:01", "settings": "60 µM abacavir"}, "HLA-B*57:01 [4]": {"target": "T1, HLA-B*57:01", "settings": "721.220.B*57:01 cells, 60 µM abacavir, 37 and 50°C vs 4°C"}, "HLA-B*57:01 [5]": {"target": "T1, HLA-B*57:01", "settings": "721.220.B*57:01 +/- tapasin, 60 µM abacavir 20 hrs, Brefeldin A 0-6 hrs"}, "HLA-B*57:01 [6]": {"target": "T1, HLA-B*57:01", "settings": "ref [20]–[22]; cited from earlier work"}}, "data": [{"smiles": "Nc1nc(NC2CC2)c2ncn([C@H]3C=C[C@@H](CO)C3)c2n1", "note": "[abacavir]", "values": [{"measurement": "Time of abacavir treatment after which changes in the immunopeptidome were evident", "setting": "HLA-B*57:01 [1]", "result": 2, "unit": "h"}, {"measurement": "Co-purification of HLA-B*57:01-bound abacavir over the time course", "setting": "HLA-B*57:01 [1]; 0-16 h", "result": "increasing amounts"}, {"measurement": "Change in protein expression of the cellular proteome", "setting": "C1R.B*57:01 cells", "result": "no protein showed significant changes in expression"}, {"measurement": "Immunogenicity of abacavir treated antigen presenting cells (IFNγ and/or TNF production by CD8+ T cells)", "setting": "[2]", "result": "increase in antigen presenting cell immunogenicity was observed over the first 12 h"}, {"measurement": "Effect on HLA-B*57:01 maturation (Endo-H resistance), tapasin-reconstituted", "setting": "HLA-B*57:01 [3]; 721.220.B*57:01.tapasin cells", "result": "unaffected"}, {"measurement": "Effect on HLA-B*57:01 maturation (Endo-H resistance), tapasin absent", "setting": "HLA-B*57:01 [3]; 721.220.B*57:01 cells", "result": "did not significantly alter this pattern of biogenesis"}, {"measurement": "Effect on thermal stability profile of HLA-B*57:01, tapasin absent", "setting": "HLA-B*57:01 [4]", "result": "no significant impact on the thermal stability profile"}, {"measurement": "Effect on expression level and stability of cell surface HLA-B*57:01", "setting": "HLA-B*57:01 [5]", "result": "did not significantly alter either the expression level or the stability"}, {"measurement": "Odds ratio of hypersensitivity reaction with HLA-B*57:01", "setting": "HLA-B*57:01 [6]", "result": "> 500"}]}]}
